Reference: PubChem BioAssay (NCI)
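Exposure lasted 48 hours, with cells grown in 96-well plates and compounds tested at five concentrations. GI50 is the concentration that inhibits growth by half. TGI is the concentration that stops growth completely.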

Assays:
Experiment in all cases: NCI-60 cell line screen, 48 h
[1] = system: HS 578T breast
[2] = system: HCT-15 colon
[3] = system: COLO 205 colon
[4] = system: M14 melanoma
[5] = system: MDA-MB-435
[6] = system: NCI-H23 lung
[7] = system: SK-OV-3 ovarian
[8] = system: K-562 leukemia
[9] = system: CCRF-CEM leukemia

## CC(=O)OCc1cc2ccccc2nc1C(Br)(Br)Br
[1]
  TGI: > 100 µM
[2]
  TGI: 54.7 µM
[3]
  TGI: 55.2 µM
[4]
  TGI: 55 µM
[5]
  TGI: 27 µM
[6]
  TGI: 29.8 µM
[7]
  TGI: 86.6 µM
[8]
  TGI: 45.4 µM
[9]
  TGI: 29.3 µM

## O=C1C(=Cc2c(O)cc(O)cc2O)C(=O)c2ccccc21
[2]
  TGI: > 77 µM
[3]
  TGI: > 56 µM
[4]
  TGI: > 57.2 µM
[6]
  TGI: > 53.9 µM
[7]
  TGI: > 100 µM
[8]
  TGI: > 93.2 µM
[9]
  TGI: > 73.1 µM

## CC(=O)C1=C(O)CC2CC3c4[nH]c5ccccc5c4CCN3CC2C1 (stereo not given)
[2]
  TGI: > 100 µM
[3]
  TGI: > 100 µM
[4]
  TGI: > 100 µM
[6]
  TGI: > 100 µM
[7]
  TGI: > 100 µM
[8]
  TGI: > 100 µM
[9]
  TGI: 87.7 µM

## Cc1cc(Cl)ccc1NC(=O)CC1SC(=Nc2ccccc2Cl)NC1=O (stereo not given)
[2]
  TGI: > 100 µM
[3]
  TGI: 47.1 µM
[4]
  TGI: > 100 µM
[6]
  TGI: > 100 µM
[7]
  TGI: > 100 µM
[8]
  TGI: > 100 µM
[9]
  TGI: > 100 µM

## NC(N)=NS(=O)(=O)c1ccc(Nc2c3ccccc3nc3c(C(=O)Nc4ccc(S(N)(=O)=O)cc4)cccc23)cc1
[2]
  TGI: > 100 µM
[3]
  TGI: > 100 µM
[4]
  TGI: > 100 µM
[6]
  TGI: > 100 µM
[7]
  TGI: > 100 µM
[8]
  TGI: > 100 µM
[9]
  TGI: > 100 µM

## Cn1cc(C(=O)C[n+]2ccccc2)c2ccccc21
[2]
  TGI: > 100 µM
[3]
  TGI: > 100 µM
[4]
  TGI: > 100 µM
[6]
  TGI: > 100 µM
[8]
  TGI: > 100 µM
[9]
  TGI: > 100 µM

## CCN(CC)c1ccc(N=Nc2ccc(-c3nc4ccc[n+](C)c4o3)cc2)cc1
[2]
  TGI: 22.3 µM
[3]
  TGI: 5.41 µM
[4]
  TGI: 24.8 µM
[6]
  TGI: 28.6 µM
[7]
  TGI: 34.1 µM
[8]
  TGI: 12.4 µM
[9]
  TGI: 19.8 µM

## COc1ccccc1NC(=O)CC(=O)N/N=C/c1ccc(N(CCC#N)S(=O)(=O)c2ccccc2)cc1
[2]
  TGI: > 100 µM
[3]
  TGI: > 100 µM
[4]
  TGI: > 100 µM
[6]
  TGI: > 100 µM
[8]
  TGI: > 100 µM
[9]
  TGI: > 100 µM

## CC(C)(c1ccccc1)c1ccc(OC#N)cc1
[2]
  TGI: 31.3 µM
[3]
  TGI: > 56.5 µM
[4]
  TGI: > 100 µM
[6]
  TGI: > 100 µM
[7]
  TGI: > 100 µM
[8]
  TGI: > 100 µM
[9]
  TGI: > 76.3 µM

## COc1ccc(OCC(=O)O)c(C(=O)CCC(=O)O)c1
[2]
  TGI: > 100 µM
[3]
  TGI: > 100 µM
[4]
  TGI: > 10 µM
[6]
  TGI: > 100 µM
[7]
  TGI: > 100 µM
[8]
  TGI: > 100 µM
[9]
  TGI: > 100 µM

## O=C(NC12CC3CC(CC(C3)C1)C2)C(=O)c1c[nH]c2ccccc12
[2]
  TGI: 24.4 µM
[3]
  TGI: 33.5 µM
[4]
  TGI: 29.3 µM
[6]
  TGI: 29.6 µM
[7]
  TGI: 29.5 µM
[9]
  TGI: 73.6 µM

## N#CC1(C#N)C(C#N)(C#N)C12CCCCCC2
[2]
  TGI: 24.2 µM
[3]
  TGI: 33.7 µM
[4]
  TGI: 8.67 µM
[6]
  TGI: 31.3 µM
[7]
  TGI: > 100 µM
[8]
  TGI: > 30.3 µM
[9]
  TGI: 6.89 µM

## COC(C)(C)C/C=C/C(C)=C/C=C/C(C)=C\C=C\C(C)=C\C=C\C=C(C)\C=C\C=C(C)\C=C\C=C(C)\C=C\CC(C)(C)OC
[2]
  GI50: > 150 µg/mL
  TGI: > 150 µg/mL
[3]
  GI50: > 150 µg/mL
  TGI: > 150 µg/mL
[4]
  GI50: > 150 µg/mL
  TGI: > 150 µg/mL
[6]
  GI50: > 150 µg/mL
  TGI: > 150 µg/mL
[8]
  GI50: > 150 µg/mL
  TGI: > 150 µg/mL
[9]
  GI50: > 150 µg/mL
  TGI: > 150 µg/mL
